Data reported in patent US20110300566A1, “METHODS FOR SCREENING FOR HISTONE DEACETYLASE ACTIVITY AND FOR IDENTIFYING HISTONE DEACETYLASE INHIBITORS” (priority 2002, published 2011).
Entries after “also recorded” stand apart in the source; their conditions may differ.

Columns and labels:
Hos3 [1] = target: T1, Hos3 (Saccharomyces cerevisiae, UniProt Q02959); assay: HDAC inhibitor studies (competition with 7AC substrate, fluorescent assay); format: biochemical; conditions: for IC50: Hos3 (150 nM) with 7AC (75 mM) substrate; for Mode of Inhibition: Hos3, 7AC substrate, double-reciprocal plots, IC50 vs substrate concentration for TSA
T1 construct: made in house; host or cells: E. coli BL21(DE3)
T1 sequence (Q02959 1-697): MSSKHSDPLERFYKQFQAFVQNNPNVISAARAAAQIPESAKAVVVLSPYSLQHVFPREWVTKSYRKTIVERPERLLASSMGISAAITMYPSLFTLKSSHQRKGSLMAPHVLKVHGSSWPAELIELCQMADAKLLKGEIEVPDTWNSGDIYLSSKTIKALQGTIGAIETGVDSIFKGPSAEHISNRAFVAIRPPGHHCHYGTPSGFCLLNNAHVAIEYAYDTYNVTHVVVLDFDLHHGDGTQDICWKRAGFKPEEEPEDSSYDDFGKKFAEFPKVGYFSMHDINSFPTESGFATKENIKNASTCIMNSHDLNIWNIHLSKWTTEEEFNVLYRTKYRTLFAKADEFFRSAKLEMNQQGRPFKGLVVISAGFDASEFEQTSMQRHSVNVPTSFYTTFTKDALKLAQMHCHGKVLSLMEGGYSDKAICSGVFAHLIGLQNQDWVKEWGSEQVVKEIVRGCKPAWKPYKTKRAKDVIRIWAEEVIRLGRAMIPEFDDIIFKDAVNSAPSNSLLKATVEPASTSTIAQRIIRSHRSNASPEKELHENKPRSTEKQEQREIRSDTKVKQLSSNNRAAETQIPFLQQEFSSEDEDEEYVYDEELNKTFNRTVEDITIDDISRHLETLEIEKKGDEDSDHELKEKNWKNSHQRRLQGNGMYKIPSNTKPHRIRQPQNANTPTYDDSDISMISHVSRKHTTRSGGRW
Experimental: Characterization of the Mechanism of Inhibition. Inhibitor studies were conducted using the 7AC substrate and the fluorescent histone deacetylase activity assay.
Competition experiments were performed in HDAC assay buffer (20 mM Tris, pH 8.0, 500 mM NaCl, 1 mM MnCl2) to a final reaction volume of 1 ml. Trichostatin A was solubilized in 100% DMSO, yielding a final concentration of 2% DMSO in this reaction. […] The final DMSO concentration in these reactions was 1%. 7AC substrate and inhibitor were added in the appropriate concentrations to the assay buffer and the basal rate of hydrolysis was recorded. Hos3 enzyme (150 nM) was added after 90 seconds and the reaction was allowed to proceed for 600 seconds. Initial rate data was transformed into appropriate rates and dose response plots were generated. IC50 values were calculated using the program Kaleidagraph with equation 4: […]
where vi is the initial velocity in the presence of inhibitor, vo, is the initial velocity in the absence of inhibitor, and [I] is the concentration of inhibitor. Ki values were determined by Dixon plots […]. The modes of inhibition were determined by double-reciprocal or Lineweaver-Burk plots, where 1/v is plotted as a function of 1/[S], using the programs of Cleland.

Hos3 [2] = target: T1, Hos3; assay: as above; format: biochemical; conditions: Hos3 (150 nM), slope of Henderson plot
[3] = Solubility of substrate in assay buffer; format: physicochemical; conditions: HDAC assay buffer
Hos3 [4] = target: T1, Hos3; assay: Histone deacetylase fluorescent activity assay (7AC hydrolysis); format: biochemical; conditions: 7AC as substrate; 150 nM Hos3; pH 8.0
Experimental: (§1) As depicted in FIG. 1, the inventive fluorescence-based HDAC assay monitors the hydrolysis of 7AC to 7-hydroxycoumarin, or of ACC to 7-hydroxycoumarin-3-carboxylic acid, at λex=332 nm and λem=447 nm. […] Utilization rations for each enzyme with the 7AC substrate were calculated. For Hos3, the utilization ratio was 1.9122×10^−4 s^−1, and 1274.8 M^−1 s^−1 when normalized by enzyme concentration. For HDLP, the utilization ratio was 2.0375×10^−4 s^−1, and 612.8 M^−1 s^−1 when normalized by enzyme concentration. For HDAC2, the utilization ratio was 1.2526×10^−5 s^−1, and 35.8 M^−1 s^−1 when normalized by enzyme concentration, as shown in Table 1.
(§2) HDAC activity assays were performed in HDAC assay buffer (20 mM Tris, pH 8.0, 500 mM NaCl, 1 mM MnCl2) to a final reaction volume of 1 ml in quartz spectrophotometer cuvettes. Fluorescence spectrophotometry was used to monitor ACC or 7AC hydrolysis (λex=332 nm, λem=447 nm). Internal fluorescence intensity calibrations were obtained using quinine sulfate as known in the art. ACC or 7AC substrate (solubilized in 100% DMSO) was added in the appropriate concentrations to the assay buffer (1% final concentration of DMSO) and the basal rate of hydrolysis was recorded. After 90 seconds, 150 nM Hos3 enzyme was added and the reaction was allowed to proceed for 600 seconds. […] Utilization ratios for Hos3 were calculated based on the adjusted initial rates. […]

HDLP = assay: as above; format: biochemical, Aquifex aeolicus; conditions: 7AC as substrate; 330 nM GST-HDLP; pH 8.0
Experimental: as §1, §2

HDAC2 = target: T2, HDAC2 (Homo sapiens, UniProt Q92769); assay: as above; format: biochemical; conditions: 7AC as substrate; 350 nM GST-HDAC2; pH 8.0
T2 construct: made in house; host or cells: E. coli BL21(DE3)
Experimental: as §1, §2

[5] = Background (basal) rate of substrate hydrolysis in assay buffer; format: physicochemical; conditions: assay buffer at pH 8.0; compared with ACC
Experimental: as §1, §2

[6] = substrate: CC(=O)Oc1ccc([N+](=O)[O-])cc1; assay: UV-based histone deacetylase activity assay; format: biochemical, Saccharomyces cerevisiae; conditions: other: MBP-Hos3; UV at 410 nm
From the text: The substrates 7AC and ACC can also be effectively utilized in a UV assay. The substrate absorbs from 250-340 nm, while the product has a maximal absorbance at 375 nm. So substrate hydrolysis/product formation can be monitored by the increase in absorbance at 375 nm. […] Para-nitrophenylacetate can also be used to assay HDAC activity. Upon acetate hydrolysis, the para-nitrophenylacetate liberates the colored p-nitrophenol chromophore; this reaction can be monitored on the UV at 410 nm.
HDAC activity assays were performed in HDAC Assay Buffer to a final reaction volume of 1 ml in quartz cuvettes. UV/Vis spectrophotometer was used to monitor the rate of 7AC hydrolysis. The 7AC substrate absorbs from 250-340 nm, while the product, 7-hydroxycoumarin, has a maximal absorbance at 375 nm. Reactions were initiated with substrate and allowed to proceed for 300 seconds, while monitoring the increase in absorbance at 375 nm. Para-nitrophenylacetate was also used to assay HDAC activity. Upon acetate hydrolysis, the para-nitrophenylacetate liberated the colored p-nitrophenol chromophore; this reaction was monitored on the UV at 410 nm. Initial rates and utilization ratios were calculated as described above.

T2 sequence (Q92769 whole entry): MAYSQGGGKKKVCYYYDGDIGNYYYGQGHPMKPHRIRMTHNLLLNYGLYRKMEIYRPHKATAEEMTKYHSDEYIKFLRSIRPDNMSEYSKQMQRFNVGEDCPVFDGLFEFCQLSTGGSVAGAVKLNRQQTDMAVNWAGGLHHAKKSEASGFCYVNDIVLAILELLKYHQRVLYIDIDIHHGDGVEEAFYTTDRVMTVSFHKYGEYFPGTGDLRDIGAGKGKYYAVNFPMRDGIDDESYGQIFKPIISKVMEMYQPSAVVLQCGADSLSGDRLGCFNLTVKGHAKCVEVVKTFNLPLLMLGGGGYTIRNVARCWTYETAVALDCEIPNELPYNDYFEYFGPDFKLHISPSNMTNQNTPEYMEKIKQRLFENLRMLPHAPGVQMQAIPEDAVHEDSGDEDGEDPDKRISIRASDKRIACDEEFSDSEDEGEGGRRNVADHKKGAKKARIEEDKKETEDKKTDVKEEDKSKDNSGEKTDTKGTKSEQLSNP

CC(/C=C/C(=O)NO)=C\[C@@H](C)C(=O)c1ccc(N(C)C)cc1 [TSA, Trichostatin A]
IC50 (Hos3 [1]): 0.000127 mM | Mode of Inhibition (Hos3 [1]): Tight-binding | Mode of Inhibition (Hos3 [1]; listed as Trichostatin A): tight-binding competitive inhibitor; also recorded: tight-binding, competitive inhibitor; also recorded: tight binding competitive inhibition | Ki (Hos3 [2]): 81 nM

CC(=O)Oc1ccc([N+](=O)[O-])cc1 [Para-nitrophenylacetate, 4-nitrophenylacetate]
Solubility limitation [3]: subject to solubility limitations that prevent complete saturation of the enzyme

CC(=O)Oc1ccc2ccc(=O)oc2c1 [7AC, 7-Acetoxycoumarin]
solubility ([3]; aqueous buffer): ≤ 1 mM | V/K (utilization ratio) (Hos3 [4]): 0.00019122 s⁻¹ | V/[Et]/K (utilization ratio normalized by enzyme concentration) (Hos3 [4]): 1274.8 M⁻¹ s⁻¹ | V/K (utilization ratio) (HDLP): 0.00020375 s⁻¹ | V/[Et]/K (utilization ratio normalized by enzyme concentration) (HDLP): 612.8 M⁻¹ s⁻¹ | V/K (utilization ratio) (HDAC2): 1.2526e-05 s⁻¹ | V/[Et]/K (utilization ratio normalized by enzyme concentration) (HDAC2): 35.8 M⁻¹ s⁻¹ | Background rate of hydrolysis [5]: lower background rate of hydrolysis

CCCC(=O)[O-].[Na+] [NaB, sodium butyrate]
IC50 (Hos3 [1]): 13.4 mM | Ki (Hos3 [1]; Hos3 (150 nM), 7AC substrate, Dixon plot): 12 mM | Mode of Inhibition (Hos3 [1]): Mixed- | Mode of Inhibition (Hos3 [1]; listed as Sodium butyrate): mixed-type inhibition | Mode of Inhibition (Hos3 [1]; listed as sodium butyrate): mixed-competitive inhibitor

B1: Hos3 (Saccharomyces cerevisiae S288C) (protein)
chain: MSSKHSDPLERFYKQFQAFVQNNPNVISAARAAAQIPESAKAVVVLSPYSLQHVFPREWVTKSYRKTIVERPERLLASSMGISAAITMYPSLFTLKSSHQRKGSLMAPHVLKVHGSSWPAELIELCQMADAKLLKGEIEVPDTWNSGDIYLSSKTIKALQGTIGAIETGVDSIFKGPSAEHISNRAFVAIRPPGHHCHYGTPSGFCLLNNAHVAIEYAYDTYNVTHVVVLDFDLHHGDGTQDICWKRAGFKPEEEPEDSSYDDFGKKFAEFPKVGYFSMHDINSFPTESGFATKENIKNASTCIMNSHDLNIWNIHLSKWTTEEEFNVLYRTKYRTLFAKADEFFRSAKLEMNQQGRPFKGLVVISAGFDASEFEQTSMQRHSVNVPTSFYTTFTKDALKLAQMHCHGKVLSLMEGGYSDKAICSGVFAHLIGLQNQDWVKEWGSEQVVKEIVRGCKPAWKPYKTKRAKDVIRIWAEEVIRLGRAMIPEFDDIIFKDAVNSAPSNSLLKATVEPASTSTIAQRIIRSHRSNASPEKELHENKPRSTEKQEQREIRSDTKVKQLSSNNRAAETQIPFLQQEFSSEDEDEEYVYDEELNKTFNRTVEDITIDDISRHLETLEIEKKGDEDSDHELKEKNWKNSHQRRLQGNGMYKIPSNTKPHRIRQPQNANTPTYDDSDISMISHVSRKHTTRSGGRW
notes: made in house; host or cells: E. coli BL21(DE3)
Km [6]: 8.3 mM
